Assay results: the NIST ThermoML archive (doi:10.1021/acs.jced.7b00347)

Assay: mn = molality of the nth substance listed, in mol/kg
Settings: for surface tension liquid-gas: Ring tensiometer; for electrical conductivity: 100 kPa, Liquid, Alternating current cell with electrodes

CCCCCCCC[NH+](CCO)CC(C)O.[Cl-] (centres undefined) + O
Settings	electrical conductivity [S/m]	surface tension liquid-gas [mN/m]
293.15 K, m1 = 1.867e-05	–	62.99
293.15 K, m1 = 1.87e-05	0.00057	–
293.15 K, m1 = 3.733e-05	–	56.87
293.15 K, m1 = 3.99e-05	0.000652	–
293.15 K, m1 = 6.12e-05	0.000733	–
293.15 K, m1 = 8.25e-05	0.000815	–
293.15 K, m1 = 9.334e-05	–	47.51
293.15 K, m1 = 0.0001038	0.000896	–
293.15 K, m1 = 0.0001251	0.000978	–
293.15 K, m1 = 0.0001464	0.00106	–
293.15 K, m1 = 0.0001676	0.00114	–
293.15 K, m1 = 0.0001867	–	40.52
293.15 K, m1 = 0.0001889	0.00122	–
293.15 K, m1 = 0.0002102	0.0013	–
293.15 K, m1 = 0.0002315	0.00138	–
293.15 K, m1 = 0.0002528	0.00147	–
293.15 K, m1 = 0.000274	0.00155	–
293.15 K, m1 = 0.00028	–	36.28
293.15 K, m1 = 0.0002953	0.00163	–
293.15 K, m1 = 0.0003166	0.00171	–
293.15 K, m1 = 0.0003379	0.00179	–
293.15 K, m1 = 0.0003592	0.00187	–
293.15 K, m1 = 0.0003734	–	33.31
293.15 K, m1 = 0.0003805	0.00196	–
293.15 K, m1 = 0.0004017	0.00204	–
293.15 K, m1 = 0.000423	0.00212	–
293.15 K, m1 = 0.0004436	–	31.33
293.15 K, m1 = 0.0004443	0.0022	–
293.15 K, m1 = 0.0004687	0.00226	–
293.15 K, m1 = 0.0004932	0.00233	–
293.15 K, m1 = 0.0005177	0.00239	–
293.15 K, m1 = 0.0005421	0.00246	–
293.15 K, m1 = 0.0005666	0.00252	–
293.15 K, m1 = 0.000591	0.00259	–
293.15 K, m1 = 0.0006155	0.00266	–
293.15 K, m1 = 0.0006399	0.00272	–
293.15 K, m1 = 0.0006644	0.00279	–
293.15 K, m1 = 0.0006888	0.00285	–
293.15 K, m1 = 0.0007133	0.00292	–
293.15 K, m1 = 0.0007378	0.00298	–
293.15 K, m1 = 0.0007622	0.00305	–
293.15 K, m1 = 0.0007867	0.00312	–
293.15 K, m1 = 0.0008111	0.00318	–
293.15 K, m1 = 0.0008356	0.00325	–
293.15 K, m1 = 0.00086	0.00331	–
293.15 K, m1 = 0.0008845	0.00338	–
293.15 K, m1 = 0.0009089	0.00345	–
293.15 K, m1 = 0.0009334	0.00352	30.74
293.15 K, m1 = 0.001867	–	30.15
293.15 K, m1 = 0.0028	–	29.89
293.15 K, m1 = 0.003733	–	30
298.15 K, m1 = 1.867e-05	–	58.01
298.15 K, m1 = 1.87e-05	0.00071	–
298.15 K, m1 = 3.733e-05	–	52.03
298.15 K, m1 = 3.79e-05	0.000793	–
298.15 K, m1 = 5.71e-05	0.000877	–
298.15 K, m1 = 7.64e-05	0.00096	–
298.15 K, m1 = 9.334e-05	–	43.52
298.15 K, m1 = 9.56e-05	0.00104	–
298.15 K, m1 = 0.0001148	0.00113	–
298.15 K, m1 = 0.000134	0.00121	–
298.15 K, m1 = 0.0001533	0.00129	–
298.15 K, m1 = 0.0001725	0.00138	–
298.15 K, m1 = 0.0001867	–	36.81
298.15 K, m1 = 0.0001917	0.00146	–
298.15 K, m1 = 0.0002109	0.00154	–
298.15 K, m1 = 0.0002302	0.00163	–
298.15 K, m1 = 0.0002494	0.00171	–
298.15 K, m1 = 0.0002686	0.00179	–
298.15 K, m1 = 0.00028	–	33.44
298.15 K, m1 = 0.0002879	0.00188	–
298.15 K, m1 = 0.0003071	0.00196	–
298.15 K, m1 = 0.0003263	0.00204	–
298.15 K, m1 = 0.0003455	0.00213	–
298.15 K, m1 = 0.0003648	0.00221	–
298.15 K, m1 = 0.000384	0.0023	–
298.15 K, m1 = 0.0004032	0.00238	–
298.15 K, m1 = 0.0004088	–	30.57
298.15 K, m1 = 0.0004364	0.00249	–
298.15 K, m1 = 0.0004695	0.0026	–
298.15 K, m1 = 0.0005026	0.00271	–
298.15 K, m1 = 0.0005358	0.00282	–
298.15 K, m1 = 0.0005689	0.00294	–
298.15 K, m1 = 0.000602	0.00305	–
298.15 K, m1 = 0.0006352	0.00316	–
298.15 K, m1 = 0.0006683	0.00327	–
298.15 K, m1 = 0.0007014	0.00338	–
298.15 K, m1 = 0.0007346	0.00349	–
298.15 K, m1 = 0.0007677	0.00361	–
298.15 K, m1 = 0.0008009	0.00372	–
298.15 K, m1 = 0.000834	0.00383	–
298.15 K, m1 = 0.0008671	0.00394	–
298.15 K, m1 = 0.0009003	0.00405	–
298.15 K, m1 = 0.0009334	0.00417	29.9
298.15 K, m1 = 0.001867	–	29.43
298.15 K, m1 = 0.0028	–	29
298.15 K, m1 = 0.003733	–	28.91
303.15 K, m1 = 1.867e-05	–	53.53
303.15 K, m1 = 1.87e-05	0.00091	–
303.15 K, m1 = 3.73e-05	0.00101	–
303.15 K, m1 = 3.733e-05	–	47.58
303.15 K, m1 = 5.6e-05	0.0011	–
303.15 K, m1 = 7.47e-05	0.0012	–
303.15 K, m1 = 9.33e-05	0.00129	–
303.15 K, m1 = 9.334e-05	–	40.08
303.15 K, m1 = 0.000112	0.00139	–
303.15 K, m1 = 0.0001307	0.00149	–
303.15 K, m1 = 0.0001493	0.00158	–
303.15 K, m1 = 0.000168	0.00168	–
303.15 K, m1 = 0.0001867	0.00177	34.17
303.15 K, m1 = 0.0002053	0.00187	–
303.15 K, m1 = 0.000224	0.00197	–
303.15 K, m1 = 0.0002427	0.00206	–
303.15 K, m1 = 0.0002614	0.00216	–
303.15 K, m1 = 0.00028	0.00225	31.17
303.15 K, m1 = 0.0002987	0.00235	–
303.15 K, m1 = 0.0003174	0.00245	–
303.15 K, m1 = 0.000336	0.00254	–
303.15 K, m1 = 0.0003472	–	29.47
303.15 K, m1 = 0.0003547	0.00264	–
303.15 K, m1 = 0.0003734	0.00273	–
303.15 K, m1 = 0.000392	0.00283	–
303.15 K, m1 = 0.0004166	0.00292	–
303.15 K, m1 = 0.0004412	0.00302	–
303.15 K, m1 = 0.000448	–	29.31
303.15 K, m1 = 0.0004658	0.00311	–
303.15 K, m1 = 0.0004905	0.00321	–
303.15 K, m1 = 0.0005151	0.0033	–
303.15 K, m1 = 0.0005397	0.0034	–
303.15 K, m1 = 0.0005643	0.00349	–
303.15 K, m1 = 0.0005889	0.00359	–
303.15 K, m1 = 0.0006135	0.00368	–
303.15 K, m1 = 0.0006381	0.00378	–
303.15 K, m1 = 0.0006627	0.00387	–
303.15 K, m1 = 0.0006873	0.00397	–
303.15 K, m1 = 0.0007119	0.00406	–
303.15 K, m1 = 0.0007365	0.00416	–
303.15 K, m1 = 0.0007611	0.00425	–
303.15 K, m1 = 0.0007857	0.00435	–
303.15 K, m1 = 0.0008104	0.00444	–
303.15 K, m1 = 0.000835	0.00454	–
303.15 K, m1 = 0.0008596	0.00463	–
303.15 K, m1 = 0.0008842	0.00473	–
303.15 K, m1 = 0.0009088	0.00482	–
303.15 K, m1 = 0.0009334	0.00492	28.79
303.15 K, m1 = 0.001867	–	28.54
303.15 K, m1 = 0.0028	–	28.22
303.15 K, m1 = 0.003733	–	28.02
308.15 K, m1 = 1.867e-05	–	51.25
308.15 K, m1 = 1.87e-05	0.00111	–
308.15 K, m1 = 3.733e-05	–	45.75
308.15 K, m1 = 4.28e-05	0.00126	–
308.15 K, m1 = 6.7e-05	0.00141	–
308.15 K, m1 = 9.11e-05	0.00156	–
308.15 K, m1 = 9.334e-05	–	38.42
308.15 K, m1 = 0.0001152	0.00171	–
308.15 K, m1 = 0.0001394	0.00186	–
308.15 K, m1 = 0.0001635	0.00201	–
308.15 K, m1 = 0.0001867	–	32.93
308.15 K, m1 = 0.0001877	0.00216	–
308.15 K, m1 = 0.0002118	0.00231	–
308.15 K, m1 = 0.000236	0.00246	–
308.15 K, m1 = 0.0002601	0.00261	–
308.15 K, m1 = 0.0002842	0.00276	–
308.15 K, m1 = 0.0002949	–	29.72
308.15 K, m1 = 0.0003084	0.00291	–
308.15 K, m1 = 0.0003325	0.00306	–
308.15 K, m1 = 0.0003472	–	28.63
308.15 K, m1 = 0.0003567	0.00321	–
308.15 K, m1 = 0.0003808	0.00336	28.46
308.15 K, m1 = 0.0004099	0.00348	–
308.15 K, m1 = 0.000439	0.0036	–
308.15 K, m1 = 0.0004681	0.00373	–
308.15 K, m1 = 0.0004972	0.00385	–
308.15 K, m1 = 0.0005262	0.00397	–
308.15 K, m1 = 0.0005553	0.0041	–
308.15 K, m1 = 0.0005844	0.00422	–
308.15 K, m1 = 0.0006135	0.00434	–
308.15 K, m1 = 0.0006426	0.00447	–
308.15 K, m1 = 0.0006716	0.00459	–
308.15 K, m1 = 0.0007007	0.00471	–
308.15 K, m1 = 0.0007298	0.00483	–
308.15 K, m1 = 0.0007589	0.00496	–
308.15 K, m1 = 0.000788	0.00508	–
308.15 K, m1 = 0.0008171	0.0052	–
308.15 K, m1 = 0.0008461	0.00533	–
308.15 K, m1 = 0.0008752	0.00545	–
308.15 K, m1 = 0.0009043	0.00557	–
308.15 K, m1 = 0.0009334	0.0057	27.95
308.15 K, m1 = 0.001867	–	27.78
308.15 K, m1 = 0.0028	–	27.44
308.15 K, m1 = 0.003733	–	27.36
